One assay has as its system melanoma. The following applies: currently used melanoma treatments, cited from earlier work.
Assay [1] deals with Stage IV metastatic melanoma.
Procedure: Example 1, weekly treatment regimen of compound (1) and paclitaxel combined in Stage IV metastatic melanoma patients in comparison with paclitaxel alone, based on time to progression
The dosages administered were 213 mg/m^2 compound (1), 80 mg/m^2 paclitaxel, and the dosage regimen was 3 weekly doses per each 4 week cycle. Patients were treated until progression of the disease. […] The tumor assessments were performed at baseline, Cycle 2, and every other Cycle thereafter.
The mark [2] stands for this setting: Kaplan-Meier estimate, efficacy sample, Stage IV melanoma patients, 3 weekly doses per 4 week cycle.
[3] abbreviates: RECIST, efficacy sample, number of patients (% of group).
Where [4] appears, read: own trial arms as listed in Tables 3 and 4.

“And” between values parts separate entries of the source, which are not always exact repeats. Equal entries are not always repeated. Where two headings read alike, the source gives them in different places.

`CCOP(=O)(OCC)C(C)NC(=O)N(CCCl)N=O` (stereo not shown) [Fotemustine]: in the assay on melanoma, the OR is reported as 15.2%, the Survival is reported as 7.3 months and the TTP was 55 days.
For the molecule `CC(=O)O[C@H]1C(=O)[C@@]2(C)[C@H]([C@H](OC(=O)c3ccccc3)[C@]3(O)C[C@H](OC(=O)[C@H](O)[C@@H](NC(=O)c4ccccc4)c4ccccc4)C(C)=C1C3(C)C)[C@]1(OC(C)=O)CO[C@@H]1C[C@@H]2O` [Paclitaxel], in the assay on melanoma (listed as Paclitaxel (Taxol)), the OR is 12% and 17.8%. Also, in assay [1] (setting [2]), the “Time to Progression, 75th percentile (95% CI)” value was 106.0 (61.0, 218.0) days and the “Time to Progression, Median (95% CI)” value is 56.0 (49.0, 105.0) days. Besides, in assay [1] (setting [3]), the “Best Overall Response: Complete Response (CR)” value is reported as 0, the “Best Overall Response: Partial Response (PR)” value is 1 (3.7%) and the “Best Overall Response: Progressive Disease (PD)” value is 16 (59.3%). The “CR + PR (95% CI)” value in assay [1] (RECIST, efficacy sample, two-sided Fisher's exact test p-value 0.149) is 3.7% (0.1%, 19.0%). Moreover, the “patients with stable disease” value in assay [1] (Table 2) amounted to 37%. In assay [1] (setting [4]), this molecule yielded a CR of 0%, an OR of 3.7%, a PR of 3.7% and a TTP of 57 days.
On to `CNC(=O)c1cc(Oc2ccc(NC(=O)Nc3ccc(Cl)c(C(F)(F)F)c3)cc2)ccn1` [Sorafenib], for which the PR with melanoma is on record as 2.6%.
Take `CC/C(=C(\c1ccccc1)c1ccc(OCCN(C)C)cc1)c1ccccc1` [Tamoxifen]: in the assay with melanoma, the CR is 1%, the OR is listed as 4.9% and the PR is on record as 3.9%.

These data come from patent US20080176828A1, “Treating melanoma with BIS(THIOHYDRAZIDE AMIDES)” (priority 2006, published 2008).
